In US10695299B2, “Disulfiram formulation” (UNIVERSITY OF WOLVERHAMPTON, priority 2015, dated 2020):

Legend:
Huh7 HCC cell line = assay: MTT cytotoxicity assay and CI-isobologram, Huh7; type: cell-based; conditions: for IC50: Homo sapiens, Huh-7, Huh7, 72 h, single drug; for combinational effect with Disulfiram-PLGA (CI-isobologram): Huh7, Cu 1 μM; for sensitivity of cells at hypoxic condition: Huh7, hypoxic versus normoxic culture, 72 h
Procedure: (§1) The PLC/PRF/5 and Huh7 HCC cell lines were cultured in DMEM (Lonza, Wokingham, UK) supplemented with 10% FCS, 50 units/ml penicillin, 50 μg/ml streptomycin.
(§2) The IC50s from single and two-drug-treated cells were detected. […] The combination index (CI) was determined by mutually exclusive equations.

PLC/PRF/5 cells = assay: Clonogenic assay, PLC/PRF/5; type: cell-based; conditions: 6 h exposure, 10 days culture, 5-FU 200 μM, Sorafenib 20 μM, CuCl2 1 μM, disulfiram-PLGA 200 nM
Procedure: (§3) […] The cells were collected and sub-cultured in 6-well plates containing drug-free medium at a cell density of 10^3/well. After 10 days culture, the clonogenic cells were determined by counting the colonies containing at least 50 cells.
(§4) The treated cells were collected and sub-cultured in 6-well plates containing drug-free medium at a cell density of 500 cells/well for another 10 days.

Huh7 cells = assay: Clonogenic assay, Huh7; type: cell-based; conditions: 6 h exposure, 10 days culture, 5-FU 200 μM, Sorafenib 20 μM, CuCl2 1 μM, disulfiram-PLGA 200 nM
Procedure: as §3, §4

PLC/PRF/5 HCC cell line = assay: MTT cytotoxicity assay and CI-isobologram, PLC/PRF/5; type: cell-based; conditions: for IC50: Homo sapiens, PLC/PRF/5, 72 h, single drug; for combinational effect with Disulfiram-PLGA (CI-isobologram): PLC/PRF/5, Cu 1 μM; for sensitivity of cells at hypoxic condition: PLC/PRF/5, hypoxic versus normoxic culture, 72 h
Procedure: as §1, §2

[1] = system: a wide range of cancer types; conditions: read-out: IC50s of disulfiram; cited from earlier work
[2] = cited from earlier work
[3] = type: in vitro ADME; conditions: horse, 100 μg/ml
Procedure: The eppendoff tubes were collected and protein was precipitated by the addition of 300 μl of absolute methanol at different time intervals. The supernatant was then subjected to HPLC measurement.
The free disulfiram was rapidly degraded in the serum to undetectable levels within 30 seconds (FIG. 1E). In contrast, disulfiram commenced its release from PLGA nanoparticles at 2 min which was equivalent to 34.23±3.38% of the initial drug loading and peaked in 4 min at 51.27±5.98% of the initial drug loading. The controlled release lasted for at least 24 hours. […] Importantly, after 4 hours incubation, the disulfiram concentration in the serum still remained at ˜90 μM which is markedly higher than the IC50s of disulfiram in a wide range of cancer types (˜50-500 nM).

PLC/PRF/5 xenografts = assay: Liver cancer xenograft experiments; type: in vivo, BALB/c Nu/Nu athymic nude mice; conditions: copper alone (CuGlu 6 mg/kg p.o.)
Procedure: PLC/PRF/5 cells (5×10^5) were subcutaneously injected at one front flank of the mice. When the tumor volume reached ˜200 mm^3, the tumor bearing mice were randomly subdivided into 6 groups (8 mice/group) e.g. control, CuGlu 6 mg/kg p.o., empty nanoparticles+CuGlu 6 mg/kg p.o., PLGA-disulfiram 2.5 mg/kg i.v.+CuGlu 6 mg/kg p.o., PLGA-disulfiram 5 mg/kg i.v.+CuGlu 6 mg/kg p.o., PLGA-disulfiram 10 mg/kg i.v.+CuGlu 6 mg/kg p.o. The drugs were administered 3 times/week for successive 3 weeks.
Five-week-old female BALB/c Nu/Nu athymic nude mice (Biotechology & Cell Biology Shanghai, China) were housed under pathogen-free conditions. PLC/PRF/5 cells (5×10^5) were subcutaneously injected at one front flank of the mice. When the tumour volume (V) reached ˜200 mm^3, the tumour bearing mice were randomly subdivided into 6 groups (8 mice/group) and treated 3 times/week e.g. control; copper gluconate (CuGlu) 6 mg/kg p.o., empty nanoparticles+CuGlu 6 mg/kg p.o., PLGA-disulfiram 2.5 mg/kg i.v.+CuGlu 6 mg/kg p.o.; PLGA-disulfiram 5 mg/kg i.v.+CuGlu 6 mg/kg p.o., PLGA-disulfiram 10 mg/kg i.v.+CuGlu 6 mg/kg p.o. The tumour volume was calculated by the following formula: V=(L×W^2)×0.5, where L is the length and W is the width of the tumour. The xenograft size was observed and recorded trice per week for 3 weeks. The animals were sacrificed after three weeks. […]

| Molecule | IC50 (Huh7 HCC cell line) [µM] | combinational effect with Disulfiram-PLGA (CI-isobologram) (Huh7 HCC cell line) | sensitivity of cells at hypoxic condition (Huh7 HCC cell line) | colony numbers versus control (PLC/PRF/5 cells) | colony numbers versus control (Huh7 cells) | IC50 (PLC/PRF/5 HCC cell line) [µM] | combinational effect with Disulfiram-PLGA (CI-isobologram) (PLC/PRF/5 HCC cell line) | sensitivity of cells at hypoxic condition (PLC/PRF/5 HCC cell line) | IC50 [1] [µM] | previously published half-life data [2] [min] | time to degradation to undetectable levels in serum [3] [s] | effect on tumor growth (PLC/PRF/5 xenografts) |
| --- | --- | --- | --- | --- | --- | --- | --- | --- | --- | --- | --- | --- |
| O=c1[nH]cc(F)c(=O)[nH]1 [5-FU, 5-fluorouracil] | 103 | very significant synergistic | significantly resistant | no significant difference | no significant difference | 123 | very significant synergistic | significantly resistant | – | – | – | – |
| [Cl][Cu][Cl] [CuCl2, copper(II) chloride] | – | – | – | no significant difference | no significant difference | – | – | – | – | – | – | – |
| CNC(=O)c1cc(Oc2ccc(NC(=O)Nc3ccc(Cl)c(C(F)(F)F)c3)cc2)ccn1 [Sorafenib] | 22.9 | very significant synergistic | significantly resistant | no significant difference | no significant difference | 30.9 | very significant synergistic | significantly resistant | – | – | – | – |
| CCN(CC)C(=S)SSC(=S)N(CC)CC [free disulfiram, Disulfiram] | – | – | – | – | – | – | – | – | 0.05 to 0.5 | 4 | ≤ 30 | – |
| copper gluconate | – | – | – | – | – | – | – | – | – | – | – | no effect |
